This passage reports Km results from PMC4814262 (Cancer Science, 2016).

For this assay, the target named is LAT1 (Homo sapiens, UniProt Q01650). In words: radiolabelled uptake in Xenopus oocytes. The conditions noted are these: Na+-free uptake buffer (choline-Cl), pH 7.5, room temperature, 15 min; labelled compound. The assay is classed as cell-based.
Sequence of LAT1 (Q01650 whole entry): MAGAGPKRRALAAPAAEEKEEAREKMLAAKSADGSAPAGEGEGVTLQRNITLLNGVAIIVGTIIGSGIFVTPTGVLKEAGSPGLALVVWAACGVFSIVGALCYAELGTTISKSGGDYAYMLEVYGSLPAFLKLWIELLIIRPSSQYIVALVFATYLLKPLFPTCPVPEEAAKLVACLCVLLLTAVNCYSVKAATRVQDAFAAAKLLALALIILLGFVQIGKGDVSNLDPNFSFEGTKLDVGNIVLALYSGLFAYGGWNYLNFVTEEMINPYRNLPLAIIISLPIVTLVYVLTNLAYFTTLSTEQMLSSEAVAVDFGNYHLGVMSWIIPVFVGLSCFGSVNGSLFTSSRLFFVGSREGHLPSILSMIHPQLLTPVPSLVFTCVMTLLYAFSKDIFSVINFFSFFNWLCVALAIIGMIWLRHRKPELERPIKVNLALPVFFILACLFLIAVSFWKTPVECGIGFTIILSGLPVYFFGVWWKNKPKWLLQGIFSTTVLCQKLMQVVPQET
Sequence of LAT1 (P08195 103-630 partner): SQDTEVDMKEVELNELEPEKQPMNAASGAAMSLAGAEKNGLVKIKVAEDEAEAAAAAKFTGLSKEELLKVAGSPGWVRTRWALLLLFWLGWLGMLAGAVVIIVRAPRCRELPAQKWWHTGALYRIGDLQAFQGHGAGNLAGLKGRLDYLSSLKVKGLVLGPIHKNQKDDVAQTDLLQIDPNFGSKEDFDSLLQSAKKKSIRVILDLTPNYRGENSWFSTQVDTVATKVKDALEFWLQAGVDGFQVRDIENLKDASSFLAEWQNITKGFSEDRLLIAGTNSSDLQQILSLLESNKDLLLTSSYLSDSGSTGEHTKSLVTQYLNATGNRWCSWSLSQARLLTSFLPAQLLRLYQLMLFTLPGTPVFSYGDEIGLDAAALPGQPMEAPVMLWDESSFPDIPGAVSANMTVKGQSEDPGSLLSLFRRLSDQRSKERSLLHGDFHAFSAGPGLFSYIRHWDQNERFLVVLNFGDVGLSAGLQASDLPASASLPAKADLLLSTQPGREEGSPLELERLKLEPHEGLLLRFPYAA

The Km is the substrate concentration at which the rate is half of its maximum. As to `C[C@](N)(Cc1ccc(O)c(F)c1)C(=O)O` [FAMT, 3‐fluoro‐L‐α‐methyl[carboxyl‐^14C]tyrosine], the Km was found to be 72.7 ± 11 µM.
